According to patent publication US6875451B2, “Compositions and methods for the treatment of primary and metastatic neoplastic diseases using arsenic compounds” (PolaRx Biopharmaceuticals Inc., priority 1997, dated 2005):

Key:
Assay type in all cases: cell-based
NCI/ADR-RIS = test: SRB growth assay, 6 days exposure, breast cancer
Procedure: (§1) Arsenic trioxide (1 mg/ml, 10 mg/ampoule, manufactured by Taylor Pharmaceuticals, Decatur, Ill.) was tested at five concentrations each at 10-fold dilutions, i.e., 10^−5, 10^−6, 10^−7, 10^−8 and 10^−9 μg/ml.
(§2) The in vitro tests were performed by incubating the test cells in the presence of the indicated concentration of arsenic trioxide under standard culture conditions for a designated period of time, which is followed by a sulforhodamine B (SRB) protein assay to estimate cell viability or growth. The cell lines are organized into subpanels according to the origin of the cell lines, e.g., leukemia, breast cancer, etc. A description of the cell lines and method of testing is described in Monk et al. (1997, Anticancer Drug Des. 12:533-41) and Weinstein et al., (1997, Science 275:343-9), which are incorporated herein in their entirety.
(§3) The measurement of an effect is expressed in Percentage Growth (PG). The measured effect of the compound on a cell line is calculated according to one or the other of the following two expressions: If (Mean ODtest−Mean ODzero)≧0. then PG=100×(Mean ODtest−Mean ODzero)/(Mean ODctrl−Mean ODzero) If (Mean ODtest−Mean ODzero)<0. then PG=100×(Mean ODtest−Mean ODzero)/(Mean ODzero where: • Mean ODzero=the average of optical density measurements of SRB-derived color just before exposure of cells to the test compounds; • Mean ODtest=the average of optical density measurements of SRB-derived color after exposure of cells to the test compound for a designated period of time; and • Mean ODctrl=the average of optical density measurements of SRB-derived color after with no exposure of cells to the test compound for a designated period of time
(§4) The first two columns describe the subpanel (e.g., leukemia) and cell line (e.g., CCRF-CEM) involved. The next two columns list the Mean ODzero and Mean ODctrl; the next five columns list the Mean ODtest for each of five different concentrations. Each concentration is expressed as the log10 (molar or μg/ml). The next five columns list the calculated PGs for each concentration. The response parameters GI50, TGI and LC50 are interpolated values representing the concentrations at which the PG is +50, 0, and −50, respectively. Sometimes these response parameters cannot be obtained by interpolation. If, for instance, all of the PGs in a given row exceed +50, then none of the three parameters can be obtained by interpolation. In such a case, the value given for each response parameter is the highest concentration tested and is preceded by a “>” sign. This practice is extended similarly to the other possible situations where a response parameter cannot be obtained by interpolation.
(§5) In the first set, the cells from 56 different cancer cell lines were exposed to five concentrations of arsenic trioxide continuously for two days prior to performing the SRB assay. In the second set, the cells from 50 different cell lines (a subset of the first 56 cell lines, plus the renal cancer cell line 786-0) were exposed continuously for six days prior to the SRB assay.

MCF7 = test: SRB growth assay, 6 days exposure, breast cancer; conditions: MCF7, 6 days
Procedure: as §1, §2, §3, §4, §5

MDA-MB-435 = test: SRB growth assay, 6 days exposure, breast cancer; conditions: MDA-MB-435, 6 days
Procedure: as §1, §2, §3, §4, §5

MDA-N = test: SRB growth assay, 6 days exposure, breast cancer
Procedure: as §1, §2, §3, §4, §5

MDA-MB-231/ATCC = test: SRB growth assay, 6 days exposure, breast cancer
Procedure: as §1, §2, §3, §4, §5

T-47D = test: SRB growth assay, 6 days exposure, breast cancer
Procedure: as §1, §2, §3, §4, §5

CCRF-CEM = test: SRB growth assay, 2 days exposure, leukemia
Procedure: as §1, §2, §3, §4, §5

K-562 = test: SRB growth assay, 2 days exposure, leukemia
Procedure: as §1, §2, §3, §4, §5

RPMI-8226 = test: SRB growth assay, 2 days exposure, leukemia
Procedure: as §1, §2, §3, §4, §5

MOLT-4 = test: SRB growth assay, 2 days exposure, leukemia
Procedure: as §1, §2, §3, §4, §5

[1] = read-out: LC50 (the source's name)

Substance: arsenic trioxide
- TGI (NCI/ADR-RIS): >1.26E−05
- Mean Optical Densities (NCI/ADR-RIS; Log 10 Concentration −4.9): 0.072
- Percent Growth (NCI/ADR-RIS; Log 10 Concentration −4.9): 1%
- Mean Optical Densities (NCI/ADR-RIS; Log 10 Concentration −5.9): 1.319
- Percent Growth (NCI/ADR-RIS; Log 10 Concentration −5.9): 56%
- Mean Optical Densities (NCI/ADR-RIS; Log 10 Concentration −6.9): 1.951
- Percent Growth (NCI/ADR-RIS; Log 10 Concentration −6.9): 84%
- Mean Optical Densities (NCI/ADR-RIS; Log 10 Concentration −7.9): 2.253
- Percent Growth (NCI/ADR-RIS; Log 10 Concentration −7.9): 98%
- Mean Optical Densities (NCI/ADR-RIS; Log 10 Concentration −8.9): 2.075
- Percent Growth (NCI/ADR-RIS; Log 10 Concentration −8.9): 90%
- CC50 (NCI/ADR-RIS; [1]): > 12.6 µM
- TGI (MCF7): 3.66E−06
- Mean Optical Densities (MCF7; Log 10 Concentration −4.9): 0.008
- Percent Growth (MCF7; Log 10 Concentration −4.9): −73%
- Mean Optical Densities (MCF7; Log 10 Concentration −5.9): 1.683
- Percent Growth (MCF7; Log 10 Concentration −5.9): 63%
- Mean Optical Densities (MCF7; Log 10 Concentration −6.9): 2.603
- Percent Growth (MCF7; Log 10 Concentration −6.9): 98%
- Mean Optical Densities (MCF7; Log 10 Concentration −7.9): 2.611
- Percent Growth (MCF7; Log 10 Concentration −7.9): 99%
- Mean Optical Densities (MCF7; Log 10 Concentration −8.9): 2.647
- Percent Growth (MCF7; Log 10 Concentration −8.9): 100%
- TGI (MDA-MB-435): 3.10E−06
- Mean Optical Densities (MDA-MB-435; Log 10 Concentration −4.9): 0.021
- Percent Growth (MDA-MB-435; Log 10 Concentration −4.9): −62%
- Mean Optical Densities (MDA-MB-435; Log 10 Concentration −5.9): 0.631
- Percent Growth (MDA-MB-435; Log 10 Concentration −5.9): 40%
- Mean Optical Densities (MDA-MB-435; Log 10 Concentration −6.9): 0.865
- Percent Growth (MDA-MB-435; Log 10 Concentration −6.9): 56%
- Mean Optical Densities (MDA-MB-435; Log 10 Concentration −7.9): 1.470
- Percent Growth (MDA-MB-435; Log 10 Concentration −7.9): 98%
- Mean Optical Densities (MDA-MB-435; Log 10 Concentration −8.9): 1.276
- Percent Growth (MDA-MB-435; Log 10 Concentration −8.9): 85%
- TGI (MDA-N): 9.55E−06
- Mean Optical Densities (MDA-N; Log 10 Concentration −4.9): 0.026
- Percent Growth (MDA-N; Log 10 Concentration −4.9): −9%
- Mean Optical Densities (MDA-N; Log 10 Concentration −5.9): 1.738
- Percent Growth (MDA-N; Log 10 Concentration −5.9): 65%
- Mean Optical Densities (MDA-N; Log 10 Concentration −6.9): 2.606
- Percent Growth (MDA-N; Log 10 Concentration −6.9): 98%
- Mean Optical Densities (MDA-N; Log 10 Concentration −7.9): 2.616
- Percent Growth (MDA-N; Log 10 Concentration −7.9): 99%
- Mean Optical Densities (MDA-N; Log 10 Concentration −8.9): 2.468
- Percent Growth (MDA-N; Log 10 Concentration −8.9): 93%
- CC50 (MDA-N; [1]): > 12.6 µM
- TGI (MDA-MB-231/ATCC): 3.18E−06
- Mean Optical Densities (MDA-MB-231/ATCC; Log 10 Concentration −4.9): −0.001
- Percent Growth (MDA-MB-231/ATCC; Log 10 Concentration −4.9): −100%
- Mean Optical Densities (MDA-MB-231/ATCC; Log 10 Concentration −5.9): 0.563
- Percent Growth (MDA-MB-231/ATCC; Log 10 Concentration −5.9): 67%
- Mean Optical Densities (MDA-MB-231/ATCC; Log 10 Concentration −6.9): 0.771
- Percent Growth (MDA-MB-231/ATCC; Log 10 Concentration −6.9): 102%
- Mean Optical Densities (MDA-MB-231/ATCC; Log 10 Concentration −7.9): 0.764
- Percent Growth (MDA-MB-231/ATCC; Log 10 Concentration −7.9): 101%
- Mean Optical Densities (MDA-MB-231/ATCC; Log 10 Concentration −8.9): 0.759
- Percent Growth (MDA-MB-231/ATCC; Log 10 Concentration −8.9): 100%
- TGI (T-47D): 2.90E−06
- Mean Optical Densities (T-47D; Log 10 Concentration −4.9): 0.027
- Percent Growth (T-47D; Log 10 Concentration −4.9): −73%
- Mean Optical Densities (T-47D; Log 10 Concentration −5.9): 0.398
- Percent Growth (T-47D; Log 10 Concentration −5.9): 41%
- Mean Optical Densities (T-47D; Log 10 Concentration −6.9): 0.539
- Percent Growth (T-47D; Log 10 Concentration −6.9): 61%
- Mean Optical Densities (T-47D; Log 10 Concentration −7.9): 0.336
- Percent Growth (T-47D; Log 10 Concentration −7.9): 33%
- Mean Optical Densities (T-47D; Log 10 Concentration −8.9): 0.883
- Percent Growth (T-47D; Log 10 Concentration −8.9): 108%
- TGI (CCRF-CEM): 0.01 ng/mL
- Percent Growth (CCRF-CEM; log10 conc −4.9): −5%
- Percent Growth (CCRF-CEM; log10 conc −5.9): 47%
- Percent Growth (CCRF-CEM; log10 conc −6.9): 98%
- Percent Growth (CCRF-CEM; log10 conc −7.9): 105%
- Percent Growth (CCRF-CEM; log10 conc −8.9): 106%
- TGI (K-562): 0.011 ng/mL
- Percent Growth (K-562; log10 conc −4.9): −5%
- Percent Growth (K-562; log10 conc −5.9): 76%
- Percent Growth (K-562; log10 conc −6.9): 100%
- Percent Growth (K-562; log10 conc −7.9): 101%
- Percent Growth (K-562; log10 conc −8.9): 98%
- TGI (RPMI-8226): 0.00723 ng/mL
- Percent Growth (RPMI-8226; log10 conc −4.9): −21%
- Percent Growth (RPMI-8226; log10 conc −5.9): 65%
- Percent Growth (RPMI-8226; log10 conc −6.9): 87%
- Percent Growth (RPMI-8226; log10 conc −7.9): 93%
- Percent Growth (RPMI-8226; log10 conc −8.9): 96%
- TGI (MOLT-4): >0.0126 ng/mL
- Percent Growth (MOLT-4; log10 conc −4.9): 4%
- Percent Growth (MOLT-4; log10 conc −5.9): 77%
- Percent Growth (MOLT-4; log10 conc −6.9): 105%
- Percent Growth (MOLT-4; log10 conc −7.9): 105%
- Percent Growth (MOLT-4; log10 conc −8.9): 109%
